One may read the Ki as a dissociation constant, usually derived from enzyme kinetics or from competition with a known ligand. Lower therefore signals higher affinity.

The results in this text go back to BindingDB's records for doi:10.1016/s0960-894x(99)00444-8 (The University of Montana, 1999).

For this test, the target named is Vesicular glutamate transporter 1 (Rattus norvegicus) (UniProt Q62634). Kind of test: Compound was evaluated for the binding affinity against glutamate vesicular transport (GVT).
Chain of Vesicular glutamate transporter 1 (Rattus norvegicus) (Q62634 whole entry, looked up): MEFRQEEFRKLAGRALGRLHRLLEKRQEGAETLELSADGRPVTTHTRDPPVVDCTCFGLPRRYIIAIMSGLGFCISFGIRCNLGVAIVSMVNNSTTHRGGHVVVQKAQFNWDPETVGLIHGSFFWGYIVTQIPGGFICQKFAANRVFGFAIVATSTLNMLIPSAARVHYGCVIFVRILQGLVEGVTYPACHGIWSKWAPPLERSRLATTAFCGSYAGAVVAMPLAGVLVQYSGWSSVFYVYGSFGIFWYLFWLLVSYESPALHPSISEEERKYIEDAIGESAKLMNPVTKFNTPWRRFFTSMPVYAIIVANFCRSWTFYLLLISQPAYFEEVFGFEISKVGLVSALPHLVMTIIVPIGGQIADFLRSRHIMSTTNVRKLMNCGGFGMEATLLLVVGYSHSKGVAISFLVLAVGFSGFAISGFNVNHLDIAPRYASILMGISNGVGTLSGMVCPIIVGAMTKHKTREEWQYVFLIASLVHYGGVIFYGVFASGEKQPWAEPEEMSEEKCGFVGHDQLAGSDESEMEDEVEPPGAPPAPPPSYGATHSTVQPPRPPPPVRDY

In the case of `O=C(O)c1cc(C(=O)O)c2cc(OCc3ccccc3)ccc2n1` [6-Benzyloxy-quinoline-2,4-dicarboxylic acid], the Ki is 204 µM.
